Assay results reported in ChEMBL document CHEMBL4251725, “Azabicyclic Fused Pyrimidine Derivatives Useful for the Treatment of Alzheimer's Disease” (ACS Med Chem Lett, 2018).

Target: Gamma-secretase
Assay: Inhibition of gamma-secretase in human H4 cells harboring APP695 K595N/M596L swedish mutant after 24 hrs by AlphaLisa assay
Assay type: cell-based

Row | EC50 [nM] | Compound
1 | 8 | CNc1nc(Nc2ccc(-n3cnc(C)n3)c(F)c2)nc2c1C(C)(C)CCN2c1ccc(F)cc1
2 | 14 | CNc1nc(Nc2ccc(-n3cnc(C)c3)c(OC)c2)nc2c1C(C)(C)CN2C1CC(F)(F)C1
